Laboratory results from patent publication US20250064712A1, “METHOD FOR AMPLIFYING EXPRESSION OF EPIDERMAL BARRIER FUNCTION-RELATED GENE” (J-Network, Inc., priority 2023, published 2025).

Tests used:
[1] = tested on: Three-dimensional cultured human epidermal model; experiment: Hematoxylin-eosin staining and DAPI nuclear staining of epidermal model (cell abnormality check); type: cell-based; details: LabCyte EPI-MODEL24 6D, 50 μL of 2% GDS23 solution applied for 24 hours, collected 9 days after application
Procedure: Treatment of epidermal model Three-dimensional cultured human epidermal model (LabCyte EPI-MODEL24 6D: manufactured by Japan Tissue Engineering Co., Ltd.) was cultured in a medium (assay medium: manufactured by Japan Tissue Engineering Co., Ltd.) at 37° C. for 24 hours.
Thereafter, the medium was exchanged, and 50 μL of a sample prepared with purified water (2% preparation solution of GDS23) was applied to the surfaces of the stratum corneum, followed by continuous culture for 24 hours. The control for comparison was applied with purified water only.
Subsequently, the sample on the surface of the stratum corneum of the epidermal model was sucked up with a sterilized cotton swab to remove the excess sample, and then the epidermal model was continuously cultured without newly applying the sample on the surface of the stratum corneum, and the epidermal model was collected 9 days after the sample was applied.
After the blocking agent was aspirated, an anti-loricrin antibody (manufactured by Proteintech Japan) (diluted 50 times with a 3% BSA/PBS solution) was added to the section, and the primary antibody reaction was carried out overnight at 4° C. […]

CERS3 gene = experiment: Test for amplification of mRNA expression of CERS3 gene (quantitative real-time PCR, GAPDH internal standard); type: cell-based, human; details: NHEKs, GDS23 50 μM, culture time 36 hr, control = 1
Procedure: (§1) Normal human epidermal keratinocytes (NHEKs) were seeded on a 96-well plate at a cell density of 2.0×10^4cells/well using HuMedia-KG2 medium (manufactured by Kurabo Industries Ltd.), and cultured under the conditions of 37° C. and 5% CO2 for 24 hours.
(§2) Thereafter, a diacylglycerol PEG adduct was added thereto using HuMedia-KB2 medium (manufactured by Kurabo Industries Ltd.), and each was cultured under the conditions of 37° C. and 5% CO2 for a predetermined time. Table 1 represents the target gene, the types of diacylglycerol PEG adduct added, the adding amount, and the culture time. A control (no addition) was also cultured under the same conditions.
(§3) After the cells were cultured for each predetermined time, RNA was extracted from the cells of each sample and control. The extracted RNA was reverse-transcribed to prepare cDNA, and the mRNA of the target gene was quantified by quantitative real-time PCR expression analysis. GAPDH (glyceraldehyde 3-phosphate dehydrogenase) was used as an internal standard.
(§4) In the analysis, the mRNA expression level of each target gene was corrected with the value of the expression level of GAPDH, which is an internal standard in the same sample, and the correction value of the sample was calculated as a relative expression level when the correction value of the control was set to 1.

loricrin = experiment: Test for detecting production of loricrin, loricrin immunostaining method; type: cell-based, human; details: LabCyte EPI-MODEL24 6D, 50 μL of 2% GDS23 solution applied for 24 hours, collected 9 days after application, vs purified water control
Procedure: A test for detecting the production of loricrin encoded by the LOR genes was performed using two staining methods: an immunostaining method using an anti-loricrin antibody and a hematoxylin-eosin staining method.
Treatment of epidermal model Three-dimensional cultured human epidermal model (LabCyte EPI-MODEL24 6D: manufactured by Japan Tissue Engineering Co., Ltd.) was cultured in a medium (assay medium: manufactured by Japan Tissue Engineering Co., Ltd.) at 37° C. for 24 hours. […]
After the blocking agent was aspirated, an anti-loricrin antibody (manufactured by Proteintech Japan) (diluted 50 times with a 3% BSA/PBS solution) was added to the section, and the primary antibody reaction was carried out overnight at 4° C. Thereafter, a Goat Anti-Rabbit IgG H&L (Alexa Fluor (registered trademark) 488 antibody (manufactured by Abcam PLC) (diluted 250 times with a 3% BSA/PBS solution) was added thereto, and the secondary antibody reaction was carried out for 1 hour at room temperature in a dark place. And then, nuclear staining was performed with DAPI diluted 200 times with a 3% BSA/PBS solution. A fluorescence microscope (BZ-X810, KEYENCE) was then used to observe the green and blue fluorescence. The green fluorescence indicates the presence of loricrin. The blue fluorescence stains the nuclei of the epidermal model to confirm that the cells are normal.

PPARA gene = experiment: Test for amplification of mRNA expression of PPARA gene (quantitative real-time PCR, GAPDH internal standard); type: cell-based, human; details: NHEKs, GDS23 50 μM, culture time 24, 30, 36 hr, control = 1
Procedure: as §1, §2, §3, §4

SULT2B1 gene = experiment: Test for amplification of mRNA expression of SULT2B1 gene (quantitative real-time PCR, GAPDH internal standard); type: cell-based, human; details: NHEKs, control = 1
Procedure: as §1, §2, §3, §4

LOR gene = experiment: Test for amplification of mRNA expression of LOR gene (quantitative real-time PCR, GAPDH internal standard); type: cell-based, human; details: NHEKs, GDM12 100 μM, culture time 30 hr, control = 1
Procedure: as §1, §2, §3, §4

IVL gene = experiment: Test for amplification of mRNA expression of IVL gene (quantitative real-time PCR, GAPDH internal standard); type: cell-based, human; details: NHEKs, GDM12 100 μM, culture time 30 hr, control = 1
Procedure: as §1, §2, §3, §4

PEG-23 glycerol distearate [GDS23]
abnormality in the cells of the epidermal model (blue fluorescence, hematoxylin-eosin staining) [1]: no abnormality in the cells of the epidermal model | relative expression level of CERS3 genes (CERS3 gene): about 2 times that of the control | production amount of loricrin in the stratum corneum (green fluorescence) (loricrin): higher than that of the control epidermal model | relative expression level of PPARA genes (PPARA gene): about 2.2 times that of the control | relative expression level of SULT2B1 genes (SULT2B1 gene; GDS23 50 μM, culture time 24 hr): about 1.2 times that of the control

PEG-12 glycerol dimyristate [GDM12]
relative expression level of LOR genes (LOR gene): about 1.3 times that of the control | relative expression level of SULT2B1 genes (SULT2B1 gene; GDM12 100 μM, culture time 30 hr): about 1.6 times that of the control | relative expression level of IVL genes (IVL gene): about 1.5 times that of the control
